Experiment in all cases: NCI tumour cell line growth inhibition, 48 h
Assay [1] has as its system BT-549 breast.
The test system of assay [2] is HS 578T breast.
Assay [3] concerns OVCAR-4 ovarian.
Assay [4] deals with OVCAR-8 ovarian.
Assay [5] has as its system PC-3 prostate.
Assay [6] concerns SK-MEL-2 melanoma.
Assay [7] has as its system SN12C renal.
Assay [8] deals with U251 CNS.
For assay [9], the system named is UACC-257 melanoma.
The test system of assay [10] is UO-31 renal.

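Interpolation was linear, between the two tested concentrations surrounding the appropriate level; five concentrations were tested over 48 hours in 96-well plates. GI50 = concentration required for 50% inhibition of growth. TGI: total growth inhibition.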

On to `O=C1C=C(OCC=C(C(F)(F)F)C(F)(F)F)c2ccccc2C1=O`, for which the GI50 in assay [1] was 2.49 µM; in assay [2], 2.06 µM; in [3], 1.53 µM; in [4], 1.63 µM; in assay [5], 1.92 µM; in assay [6] it was 1.85 µM. Besides, the GI50 in [7] is 1.09 µM; in [8], 1.84 µM; in assay [9] it was 1.42 µM; in assay [10] it was 1.53 µM. Besides, the TGI stood at 6.64 µM in assay [1]; 7.21 µM in [2]; 2.91 µM in assay [3]; 3.12 µM in assay [4]; 5.91 µM in assay [5]; 4.06 µM in [6]. Further, the TGI in assay [7] was 2.37 µM; in [8], 3.83 µM; in [9], 2.77 µM; in assay [10], 3.1 µM.

Take `O=C(Nc1ccccc1)OC1OC(COC(=O)c2ccccc2)C(OC(=O)c2ccccc2)C1OS(=O)(=O)c1ccc([N+](=O)[O-])cc1` (stereo not given): the TGI in assay [1], in assay [2], in assay [3], in [4], in assay [5] and in [6] was more than 100 µM each time. In addition, the TGI in assay [7], in assay [8], in assay [9] and in assay [10] was more than 100 µM throughout.

For `O=C(c1ccc([N+](=O)[O-])cc1)C(Br)C(Br)c1ccnc2ccccc12` (stereo not given), the TGI was 20 µM in assay [1]; more than 27.2 µM in [2]; 25.5 µM in assay [3]; 42.3 µM in assay [4]; 21.1 µM in assay [5]; 26.4 µM in [6]. In addition, the TGI in [7] worked out at 14.4 µM; in [8] it was 4.13 µM; in [9], 14.6 µM; in assay [10], 3.58 µM.

As for `O=C(Nc1cc(F)c(F)cc1C(=O)O)c1ccc(-n2ccnc2)nn1`, the GI50 in assay [1] is 81.9 µM; in assay [2] it was more than 100 µM; in assay [3] it was 65.6 µM; in assay [4] it was more than 100 µM; in assay [5], more than 100 µM; in assay [6], more than 100 µM. The GI50 in assay [7], in assay [8], in [9] and in [10] was more than 100 µM throughout. Further, the TGI in assay [1], in assay [2], in assay [3], in [4], in assay [5] and in [6] was more than 100 µM in each case. In addition, the TGI in assay [7], in [8], in assay [9] and in [10] was more than 100 µM each time.

For the compound `COc1ccc(C(=O)c2cc3c(N)c(C(=O)Nc4cccc(Br)c4C)sc3nc2C)cc1`, the GI50 in assay [1] was 0.123 µM; in assay [2], 0.082 µM; in assay [3], 0.474 µM; in assay [4], 0.205 µM; in assay [5], 0.0624 µM; in assay [6] it was 1.54 µM. In addition, the GI50 in assay [7] is 0.0844 µM; in assay [8] it was 0.0518 µM; in assay [9], more than 100 µM; in assay [10], 0.219 µM. Moreover, the TGI in [1], in assay [2], in assay [3], in [4], in assay [5] and in assay [6] was more than 100 µM in each case. The TGI in assay [7], in [8], in [9] and in [10] was more than 100 µM throughout.

For the compound `O=C1Cc2cc(CCn3cncn3)c(Cl)cc2N1`, the GI50 in assay [1] was 8.72 µM; in assay [2], 0.72 µM; in [3] it was more than 100 µM; in [4] it was 69.4 µM; in assay [5], more than 100 µM; in [6], 12.4 µM. Besides, the GI50 in assay [7] was more than 100 µM; in [8] it was 14.5 µM; in assay [9], 7.14 µM; in assay [10], more than 100 µM. Besides, the TGI in assay [1], in [2], in assay [3], in assay [4], in [5] and in assay [6] was more than 100 µM in each case. The TGI in assay [7], in assay [8], in assay [9] and in assay [10] was more than 100 µM each time.

Turning to `Cc1ccc(Cl)c(NS(=O)(=O)c2ccc(-c3cnc(C4CC4)o3)cc2)c1`, the GI50 in [1] was 0.299 µM; in [2], 0.0729 µM; in [3] it was 2.1 µM; in [4], 0.258 µM; in [5] it was 0.077 µM; in assay [6] it was 0.412 µM. For the same compound, the GI50 in assay [7] was 0.415 µM; in assay [8] it was 0.142 µM; in assay [9], 8.16 µM; in assay [10], 0.275 µM. Besides, the TGI in assay [1] was 14.8 µM; in [2] it was more than 69.6 µM; in assay [3] it was 80.6 µM; in assay [4], more than 58.9 µM; in assay [5], more than 68.6 µM; in [6], 50 µM. Besides, the TGI in assay [7] is more than 74.9 µM; in assay [8], 26.5 µM; in assay [9], 50.7 µM; in assay [10] it was more than 100 µM.

With `O=C(/C=C/c1ccccn1)c1ccc(OCc2nnc(-c3ccc(Cl)cc3)o2)cc1`, the GI50 was 1.92 µM in [1]; 3.33 µM in [2]; 3.42 µM in assay [3]; 2.48 µM in assay [4]; 1.87 µM in [5]; 3.29 µM in assay [6]. For the same compound, the GI50 was 2.41 µM in assay [7], 1.64 µM in assay [8], 1.98 µM in assay [9] and 1.81 µM in assay [10]. The TGI in assay [1] turned out to be 3.46 µM; in [2], 10.3 µM; in assay [3], 12.4 µM; in assay [4], 5.57 µM; in assay [5], 3.9 µM; in assay [6], 8.61 µM. The TGI in assay [7] is 5.8 µM; in [8] it was 3.05 µM; in assay [9], 4.06 µM; in assay [10] it was 3.26 µM.

On to `CS(=O)(=O)c1cccc(Nc2ncc3cc(-c4ccccc4Cl)ccc3n2)c1`, for which the GI50 in assay [1] is 2.11 µM; in assay [2] it was 1.23 µM; in [3] it was 1.51 µM; in assay [4], 1.44 µM; in assay [5], 1.79 µM; in [6] it was 0.92 µM. In addition, the GI50 is 1.12 µM in assay [7], 1.68 µM in [8], 3.24 µM in [9] and 0.803 µM in assay [10]. The TGI in assay [1] is 27.8 µM; in assay [2], 10.3 µM; in assay [3] it was more than 33.3 µM; in [4] it was 32 µM; in [5], more than 33.3 µM; in assay [6], 2.61 µM. For the same compound, the TGI was more than 33.3 µM in assay [7], more than 33.3 µM in assay [8], 19.3 µM in assay [9] and 6.41 µM in [10].

The values are drawn from PubChem BioAssay (NCI).
